Experimental data from paper PMC7765321, “Novel Isoniazid-Carborane Hybrids Active In Vitro against Mycobacterium tuberculosis” (Pharmaceuticals, 2020).
Values joined by “and” are separate entries in the source; they are usually repeats but may differ in a detail not shown here. Identical values can stand only once.

test system: Mtb ΔkatG mutant strain; type: cell-based, Mycobacterium tuberculosis

Compound	katG MIC50	katG MIC99
N′-((1,7-dicarba-closo-dodecaboran-1-yl)propanoyl)isonicotinohydrazide [Compound 9]	150 µM	300 µM
N′-((1,7-dicarba-closo-dodecaboran-1-yl)methylidene)isonicotinohydrazide [Compound 14]	260 µM	340 µM
N′-((7,8-dicarba-nido-undecaboranyl)methylidene)isonicotinohydrazide [Compound 16]	500 µM	>660 µM
N′-((1,2-dicarba-closo-dodecaboran-1-yl)ethylidene)isonicotinohydrazide [Compound 20]	160 µM	240 µM
N′-((1,7-dicarba-closo-dodecaboran-1-yl)ethylidene)isonicotinohydrazide [Compound 21]	160 µM	240 µM
N′-((1,7-dicarba-closo-dodecaboran-1-yl)ethyl)isonicotinohydrazide [Compound 24]	81.30 µM	160 µM
N′-((1,2-dicarba-closo-dodecaboran-1-yl)propanoyl)isonicotinohydrazide [Compound 8]	150 µM	300 µM
N′-((1,12-dicarba-closo-dodecaboran-1-yl)propanoyl)isonicotinohydrazide [Compound 10]	150 µM	300 µM
N′-((1,2-dicarba-closo-dodecaboran-1-yl)ethyl)isonicotinohydrazide [Compound 23]	97.60 µM	240 µM
N′-((1,12-dicarba-closo-dodecaboran-1-yl)ethylidene)isonicotinohydrazide [Compound 22]	160 µM	330 µM
N′-((1,12-dicarba-closo-dodecaboran-1-yl)methylidene)isonicotinohydrazide [Compound 15]	510 µM	680 µM
NNC(=O)c1ccncc1 [4 (INH), pyridine-4-carbohydrazide, reference compound]	1100 µM	1500 µM
N′-((1,12-dicarba-closo-dodecaboran-1-yl)ethyl)isonicotinohydrazide [Compound 25]	3.25 µM	24.4 µM and 24.40 µM
